Some test systems named below: ACHN renal; HL-60(TB) leukemia; KM12 colon; MOLT-4 leukemia; NCI/ADR-RES ovarian; RPMI-8226 leukemia; SF-295 CNS; SK-MEL-28 melanoma; SK-MEL-5 melanoma; U251 CNS.
Common to all, as to experiment: DTP human tumour cell line panel, 48 h

What is called GI50 is the concentration at which growth is held to half of that of the control. What is called TGI is the concentration at which net growth stops. Read a high TGI as lower sensitivity of the cells.

Several values for one entry are separate records, joined by “and”; a condition that tells them apart may be missing. Equal values may be shown once.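 48-hour exposure; five concentrations; linearly interpolated endpoints. The concentration for 50% growth inhibition is given as GI50. TGI marks complete inhibition of growth.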

`COc1nc(N)nc2c1ncn2[C@@H]1O[C@H](CO)[C@@H](O)[C@@H]1O`: the GI50 is greater than 100 µM with ACHN renal; greater than 100 µM with HL-60(TB) leukemia; greater than 100 µM in the assay on KM12 colon; 9.51 µM with MOLT-4 leukemia; greater than 100 µM with NCI/ADR-RES ovarian; greater than 100 µM in the assay with RPMI-8226 leukemia. The GI50 in the assay on SF-295 CNS, in the assay on SK-MEL-28 melanoma, in the assay with SK-MEL-5 melanoma and with U251 CNS was greater than 100 µM in each case. The TGI in the assay with ACHN renal, with HL-60(TB) leukemia, in the assay with KM12 colon, in the assay on MOLT-4 leukemia, in the assay with NCI/ADR-RES ovarian and in the assay with RPMI-8226 leukemia was greater than 100 µM in each case. The TGI in the assay on SF-295 CNS, in the assay on SK-MEL-28 melanoma, in the assay on SK-MEL-5 melanoma and in the assay with U251 CNS was greater than 100 µM throughout.
Regarding `O=C(NCCNc1nccc(-c2c(-c3ccc(F)cc3)nc3sccn23)n1)c1ccccc1`, the GI50 with ACHN renal was 2.98 µM; in the assay with HL-60(TB) leukemia, 21.3 µM; in the assay on KM12 colon, 7.6 µM; in the assay with MOLT-4 leukemia, 12.2 µM; in the assay with NCI/ADR-RES ovarian it was 7.13 µM; in the assay on RPMI-8226 leukemia, 5.88 µM. Moreover, the GI50 in the assay on SF-295 CNS was 6.97 µM; in the assay on SK-MEL-28 melanoma, 13.4 µM; in the assay with SK-MEL-5 melanoma, 1.66 µM; in the assay on U251 CNS, 8.57 µM. Moreover, the TGI in the assay with ACHN renal is 49.2 µM; in the assay with HL-60(TB) leukemia, 77.4 µM; in the assay on KM12 colon, 22.4 µM; with MOLT-4 leukemia, 54.8 µM; in the assay on NCI/ADR-RES ovarian, 76.4 µM; in the assay on RPMI-8226 leukemia it was 27 µM. Also, the TGI is 27.5 µM with SF-295 CNS, 37.1 µM in the assay with SK-MEL-28 melanoma, 13.3 µM in the assay on SK-MEL-5 melanoma and greater than 100 µM in the assay on U251 CNS.
On to `O=C1CCC(N2Cc3c(C#CCCCNC(=O)c4cc5c(o4)C(=O)c4ccccc4C5=O)cccc3C2=O)C(=O)N1` (stereo unspecified), for which the GI50 with ACHN renal was 12.6 µM; in the assay on HL-60(TB) leukemia, 2.37 µM; with KM12 colon it was 4.52 µM; in the assay on MOLT-4 leukemia, 3.08 µM; in the assay with NCI/ADR-RES ovarian, greater than 100 µM; with RPMI-8226 leukemia it was 6.93 µM. Moreover, the GI50 with SF-295 CNS was 2.84 µM; in the assay with SK-MEL-28 melanoma, 3.53 µM; in the assay on SK-MEL-5 melanoma, 1.75 µM; in the assay on U251 CNS it was 2.87 µM. The TGI is 26 µM with ACHN renal; 7.34 µM in the assay on HL-60(TB) leukemia; 28.6 µM with KM12 colon; 12.5 µM in the assay on MOLT-4 leukemia; greater than 100 µM in the assay on NCI/ADR-RES ovarian; 30.1 µM with RPMI-8226 leukemia. Also, the TGI in the assay on SF-295 CNS worked out at 8.03 µM; with SK-MEL-28 melanoma, 8.83 µM; in the assay with SK-MEL-5 melanoma, 3.25 µM; with U251 CNS it was 8.07 µM.
Regarding `CSc1nc(C)c(Br)c(=O)n1C1OC(COC(C)=O)C(OC(C)=O)C(OC(C)=O)C1OC(C)=O` (stereo unspecified), the GI50 in the assay with ACHN renal was > 100 µM and 35.4 µM; in the assay with SK-MEL-28 melanoma, > 100 µM and 21 µM; with SK-MEL-5 melanoma it was > 100 µM and 19.2 µM. For the same compound, the concentration for total growth inhibition (TGI) in the assay with ACHN renal, in the assay on HL-60(TB) leukemia, in the assay with KM12 colon, in the assay on MOLT-4 leukemia, in the assay on NCI/ADR-RES ovarian and in the assay on RPMI-8226 leukemia was greater than 100 µM in each case. Besides, the TGI with SF-295 CNS is 79.7 µM and 70.8 µM; in the assay with SK-MEL-28 melanoma, > 100 µM and 57 µM; in the assay on SK-MEL-5 melanoma it was > 100 µM and 50.7 µM; in the assay on U251 CNS it was > 100 µM and 49.3 µM.
For the compound `O=C(Nc1ccc(OCc2nnc(-c3ccccc3)o2)c(F)c1)Nc1ccc(Cl)c(C(F)(F)F)c1`, the GI50 in the assay with ACHN renal was 1.84 µM; in the assay on HL-60(TB) leukemia it was 1.99 µM; in the assay with KM12 colon it was 1.47 µM; in the assay on MOLT-4 leukemia it was 1.61 µM; in the assay with NCI/ADR-RES ovarian it was 2.27 µM; in the assay on RPMI-8226 leukemia it was 1.11 µM. In addition, the GI50 was 2.18 µM with SF-295 CNS, 3.08 µM in the assay on SK-MEL-28 melanoma, 1.74 µM with SK-MEL-5 melanoma and 1.54 µM with U251 CNS. The TGI came out at 4.42 µM in the assay on ACHN renal; 4.61 µM in the assay with HL-60(TB) leukemia; 5.09 µM with KM12 colon; 7.13 µM with MOLT-4 leukemia; 7.65 µM in the assay on NCI/ADR-RES ovarian; 3.57 µM in the assay on RPMI-8226 leukemia. Also, the concentration for total growth inhibition (TGI) with SF-295 CNS is 6.83 µM; with SK-MEL-28 melanoma, greater than 100 µM; in the assay with SK-MEL-5 melanoma it was 3.59 µM; with U251 CNS it was 4.68 µM.
Regarding `Nc1ccc(-c2nc3ccccc3o2)cc1S`, the GI50 is 12.1 µM in the assay with ACHN renal; 14.5 µM with HL-60(TB) leukemia; 8.1 µM in the assay on KM12 colon; 7.77 µM with MOLT-4 leukemia; 24.9 µM in the assay on NCI/ADR-RES ovarian; 12.4 µM with RPMI-8226 leukemia. The GI50 in the assay on SF-295 CNS was 13.6 µM; in the assay on SK-MEL-28 melanoma, 24.9 µM; with SK-MEL-5 melanoma, 12.5 µM; in the assay on U251 CNS, 10.8 µM. The TGI is 24.4 µM in the assay with ACHN renal; 42 µM with HL-60(TB) leukemia; 35.2 µM in the assay on KM12 colon; greater than 100 µM in the assay on MOLT-4 leukemia; 65.2 µM with NCI/ADR-RES ovarian; 32 µM with RPMI-8226 leukemia. In addition, the TGI came out at 28.8 µM in the assay on SF-295 CNS, 58.8 µM in the assay with SK-MEL-28 melanoma, 25.1 µM with SK-MEL-5 melanoma and 22.7 µM in the assay with U251 CNS.
`C/C(=C\CCc1ccsc1)CC/C=C(\C)CCCN1CCC(CO)CC1`: the GI50 in the assay with ACHN renal was 3.02 µM; with HL-60(TB) leukemia, 1.94 µM; in the assay with KM12 colon, 1.88 µM; with MOLT-4 leukemia it was 2.3 µM; in the assay with NCI/ADR-RES ovarian, 3.33 µM; with RPMI-8226 leukemia, 1.93 µM. Moreover, the GI50 in the assay with SF-295 CNS is 2 µM; with SK-MEL-28 melanoma, 1.69 µM; with SK-MEL-5 melanoma, 1.55 µM; in the assay with U251 CNS, 1.42 µM. Also, the TGI in the assay with ACHN renal is 11.5 µM; in the assay on HL-60(TB) leukemia, 3.99 µM; in the assay with KM12 colon, 3.47 µM; with MOLT-4 leukemia it was 5.8 µM; in the assay on NCI/ADR-RES ovarian it was 13.3 µM; in the assay with RPMI-8226 leukemia it was 4.15 µM. The TGI with SF-295 CNS was found to be 4.13 µM; with SK-MEL-28 melanoma it was 3.38 µM; in the assay with SK-MEL-5 melanoma, 2.95 µM; with U251 CNS, 3.11 µM.
As for `S=C(c1ccc2c(c1)OCO2)N1CCN(c2cccc(Cl)c2)CC1`, the GI50 with ACHN renal was 13.4 µM; with HL-60(TB) leukemia, 0.195 µM; in the assay with KM12 colon it was 0.447 µM; in the assay on MOLT-4 leukemia, 2.28 µM; with NCI/ADR-RES ovarian, 0.635 µM; in the assay on RPMI-8226 leukemia, 0.598 µM. Besides, the GI50 is 0.387 µM with SF-295 CNS, 1.02 µM with SK-MEL-28 melanoma, 0.454 µM with SK-MEL-5 melanoma and 0.61 µM with U251 CNS. Also, the TGI was greater than 100 µM in the assay with ACHN renal; 0.642 µM in the assay with HL-60(TB) leukemia; 29.7 µM with KM12 colon; greater than 55.8 µM in the assay with MOLT-4 leukemia; greater than 100 µM in the assay on NCI/ADR-RES ovarian; greater than 100 µM with RPMI-8226 leukemia. In addition, the TGI is greater than 40.9 µM in the assay with SF-295 CNS, greater than 100 µM with SK-MEL-28 melanoma, greater than 100 µM in the assay on SK-MEL-5 melanoma and greater than 100 µM in the assay on U251 CNS.
Take `O=C1c2cc([N+](=O)[O-])cc3cc([N+](=O)[O-])cc(c23)C(=O)N1CCCNCCNCCCN1C(=O)c2cc([N+](=O)[O-])cc3cc([N+](=O)[O-])cc(c23)C1=O`: the TGI in the assay on ACHN renal is greater than 23.2 µM; in the assay with HL-60(TB) leukemia, 1.13 µM; in the assay on KM12 colon, 2.51 µM; with MOLT-4 leukemia, 1.41 µM; with NCI/ADR-RES ovarian, greater than 100 µM; with RPMI-8226 leukemia, 0.278 µM. The total growth inhibition concentration (TGI) with SF-295 CNS turned out to be 8 µM; with SK-MEL-28 melanoma it was 2.11 µM; with SK-MEL-5 melanoma, 1.97 µM; with U251 CNS, 3.49 µM.
`CC(C)NC(=O)OCc1c(COC(=O)NC(C)C)c(-c2ccc(Cl)c(Cl)c2)n2c1CCC2`: the TGI in the assay with ACHN renal was 43.6 µM; with HL-60(TB) leukemia, 48.2 µM; in the assay on KM12 colon it was 73.1 µM; in the assay on MOLT-4 leukemia, 34.8 µM; with NCI/ADR-RES ovarian, greater than 100 µM; in the assay with RPMI-8226 leukemia it was 73.3 µM. Moreover, the TGI was 72.8 µM in the assay on SF-295 CNS, 75.1 µM with SK-MEL-28 melanoma, greater than 81.7 µM in the assay with SK-MEL-5 melanoma and 71.8 µM with U251 CNS.
As to `O=C(O)c1ccccc1-c1ccccc1C(=O)Nc1ccc2c(c1)[nH]c(=O)c1ccccc12`, the TGI with ACHN renal, with HL-60(TB) leukemia, with KM12 colon, in the assay with MOLT-4 leukemia, in the assay with NCI/ADR-RES ovarian and in the assay on RPMI-8226 leukemia was greater than 100 µM in each case. In addition, the TGI in the assay on SF-295 CNS, in the assay with SK-MEL-28 melanoma, with SK-MEL-5 melanoma and with U251 CNS was greater than 100 µM each time.
`OCC1OC(n2cnc3c2NC=NC[C@H]3O)CC1O` (stereo partly specified): the GI50 in the assay on ACHN renal was greater than 588 µM; with HL-60(TB) leukemia, 219 µM; with MOLT-4 leukemia, greater than 588 µM; in the assay on RPMI-8226 leukemia it was greater than 588 µM; with SF-295 CNS, greater than 588 µM; with SK-MEL-28 melanoma it was greater than 588 µM. The GI50 in the assay with SK-MEL-5 melanoma and in the assay on U251 CNS was greater than 588 µM in each case. In addition, the total growth inhibition concentration (TGI) in the assay on ACHN renal is 497 µM and > 588 µM; in the assay with HL-60(TB) leukemia, 465 µM and > 588 µM; in the assay with KM12 colon it was 500 µM; with MOLT-4 leukemia, 469 µM and > 588 µM; in the assay with NCI/ADR-RES ovarian, 500 µM; with RPMI-8226 leukemia it was 500 µM and > 588 µM. The TGI with SF-295 CNS was 475 µM and > 588 µM; in the assay with SK-MEL-28 melanoma it was 500 µM and > 588 µM; with SK-MEL-5 melanoma, 499 µM and > 588 µM; in the assay with U251 CNS it was 500 µM and > 588 µM.

Source of the values: PubChem BioAssay (NCI).
